Test results as given in US10391268B2, “Device and method of delivering particles in the upper respiratory tract” (SERVICES MEDICAUX ARNOLD ET JOAN ZIDULKA INC., priority 2016, dated 2019).

Test system: patient suffering from post-nasal drip and upper laryngeal syndrome
Assay: two rounds of testing of orally administered, nasally exhaled aerosolized ciclesonide in a patient
Assay type: in vivo
Details: one patient; two rounds with an interval of two weeks; two sprays of 200 micrograms ciclesonide into FIG. 3 device, four to six oral inhalations each followed by nasal exhalation, morning and evening for two weeks
From the text: The Applicant has performed two rounds of testing on a patient suffering from post-nasal drip and upper laryngeal syndrome with an interval of two weeks between the rounds, each round consisting in administering a therapeutically effective dose of ciclesonide using the method of the present invention. […] In some embodiments, the therapeutically effective dose of ciclesonide for the treatment of upper airway cough syndrome is from 25 to 800 micrograms. Use of ciclesonide for the treatment of upper airway cough syndrome provides the advantage of avoiding fungal infections typically associated with administration of corticosteroid in the posterior nasal region, pharynx and the larynx.
In conducting the rounds of testing, the Applicant used the embodiment of the oral delivery device of the present invention shown in FIG. 3. […] It should be noted that in some embodiments, the effective volume is greater or smaller than 375 milliliters. In operation, the patient released two sprays of aerosolized ciclesonide into the oral delivery device, each one of the sprays containing 200 micrograms of ciclesonide, and performed four to six oral inhalations, each one of the inhalations being followed by a nasal exhalation into the ambient atmosphere. Each one of the inhalations drew ambient air into the oral delivery device to sweep in an additional amount of aerosolized ciclesonide. […]

Q: How did the “patient-reported symptoms typical of upper airway cough syndrome following each round” value turn out when `CC(C)C(=O)OCC(=O)[C@@]12O[C@H](C3CCCCC3)O[C@@H]1C[C@H]1[C@@H]3CCC4=CC(=O)C=C[C@]4(C)[C@H]3[C@@H](O)C[C@@]12C` [ciclesonide] was run?
A: significant alleviation of the symptoms
